For data set [1], the target named is T1, MfnB_MM (Methanococcus maripaludis, UniProt Q6LZC1).
T1 construct: gene mfnB; full length, N-terminal hexa-histidine tag (pOPINF), no tag cleavage described; codon-optimised synthetic gene, expressed in E. coli BL21 (DE3)
In words: spectrophotometric, 4-HFC-P formation at […] nm; fit with substrate inhibition term. The data set is classed as biochemical. Particulars: 45 °C (optimum), pH 7.5, 20 mM Tris–HCl, 150 mM NaCl; two substrate molecules condensed.

Another data set deals with T2, MfnB_MJ (Methanocaldococcus jannaschii, UniProt Q58499).
T2 construct: gene mfnB; full length (235 residues), N-terminal hexa-histidine tag (pOPINF), no tag cleavage described; codon-optimised synthetic gene, expressed in E. coli BL21 (DE3); homohexamer in published crystal structure
The description is as above. The data set is classed as biochemical. The conditions noted are these: 75 °C (optimum), pH 7.5, 20 mM Tris–HCl, 150 mM NaCl; two substrate molecules condensed; substrate inhibition constant.

Data set [2] deals with T1, MfnB_MM. The description is as above. The data set is classed as biochemical. Particulars: 45 °C (optimum), pH 7.5, 20 mM Tris–HCl, 150 mM NaCl; two substrate molecules condensed; substrate inhibition constant.
Substrate in the data set “purified protein”: O=C[C@H](O)COP(=O)(O)O
Briefly: purified protein. The conditions noted are these: 75 °C (optimum), pH 7.5, 20 mM Tris–HCl, 150 mM NaCl, two substrate molecules condensed. In kind it is biochemical, Methanocaldococcus jannaschii.

T1 sequence (Q6LZC1 whole entry): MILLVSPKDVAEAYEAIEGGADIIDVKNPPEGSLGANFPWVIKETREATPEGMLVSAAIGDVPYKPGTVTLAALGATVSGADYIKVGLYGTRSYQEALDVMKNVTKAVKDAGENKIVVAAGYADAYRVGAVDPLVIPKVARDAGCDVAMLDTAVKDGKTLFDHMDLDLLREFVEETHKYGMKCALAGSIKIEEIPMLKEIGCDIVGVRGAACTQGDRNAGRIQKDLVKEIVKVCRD

With `O=C[C@H](O)COP(=O)(O)O` [D-GA-3-P], at MfnB_MM [1], the Michaelis constant (Km) amounted to 6.9 ± 0.6 µM. The entries for the “Ki” value on MfnB_MJ and on MfnB_MM [2] were 565.3 ± 79.7 µM and 1532.0 ± 160.4 µM, respectively.

B1: MfnB_MJ (Methanocaldococcus jannaschii DSM 2661) (protein)
chain: MILLVSPIDVEEAKEAIAGGADIIDVKNPKEGSLGANFPWMIKAIREVTPKDLLVSATVGDVPYKPGTISLAAVGAAISGADYIKVGLYGVKNYYQAVELMKNVVRAVKDIDENKIVVAAGYADAYRVGAVEPLIVPKIARDAGCDVAMLDTAIKDGKTLFDFQSKEILAEFVDEAHSYGLKCALAGSIKKEHIPILKEIGTDIVGVRGAACKGGDRNNGRIDRELVKELKELCK
notes: full length (235 residues), N-terminal hexa-histidine tag (pOPINF), no tag cleavage described; codon-optimised synthetic gene, expressed in E. coli BL21 (DE3); homohexamer in published crystal structure
As for B1, in the data set “purified protein”, the Michaelis constant (Km) stood at 24.6 ± 3.1 µM and the kcat stood at 8.5 ± 0.4 min⁻¹.

For the origin of these results see PMC11365854, “Molecular basis of hyper-thermostability in the thermophilic archaeal aldolase MfnB” (Extremophiles, 2024).
